“And” between values parts separate entries of the source, which are not always exact repeats. Equal values may be shown once. Inconclusive results and toxic doses are left out.
System: BDF1 mice, P388 leukemia ip, median survival T/C
Experiment: NCI In Vivo Anticancer Drug Screen. Data for tumor model P388 Leukemia (intraperitoneal) in B6D2F1 (BDF1) mice
Conditions: endpoint: median survival time, higher = longer survival
Summary of the method: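 Vehicle-dosed animals serve as the reference; survival of compound-dosed, tumour-implanted mice is divided by it.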

[1] = dose: 25.0 mg/kg/injection, schedule: Q01DX009 (ip), vehicle: saline with Tween-80
[2] = dose: 50.0 mg/kg/injection, schedule: Q01DX009 (ip), vehicle: saline with Tween-80
[3] = dose: 100.0 mg/kg/injection, schedule: Q01DX009 (ip), vehicle: saline with Tween-80
[4] = dose: 100.0 mg/kg/injection, schedule: Q04DX003 (ip), vehicle: saline with Tween-80
[5] = dose: 200.0 mg/kg/injection, schedule: Q04DX003 (ip), vehicle: saline with Tween-80
[6] = dose: 400.0 mg/kg/injection, schedule: Q04DX003 (ip), vehicle: saline with Tween-80
[7] = dose: 200.0 mg/kg/injection, schedule: Q01DX009 (ip), vehicle: saline with Tween-80
[8] = dose: 25.0 mg/kg/injection, schedule: Q04DX003 (ip), vehicle: saline with Tween-80
[9] = dose: 50.0 mg/kg/injection, schedule: Q04DX003 (ip), vehicle: saline
[10] = dose: 100.0 mg/kg/injection, schedule: Q04DX003 (ip), vehicle: saline
[11] = dose: 200.0 mg/kg/injection, schedule: Q04DX003 (ip), vehicle: saline
[12] = dose: 400.0 mg/kg/injection, schedule: Q04DX003 (ip), vehicle: saline
[13] = dose: 6.25 mg/kg/injection, schedule: Q01DX009 (ip), vehicle: saline with Tween-80
[14] = dose: 12.5 mg/kg/injection, schedule: Q01DX009 (ip), vehicle: saline with Tween-80
[15] = dose: 50.0 mg/kg/injection, schedule: Q04DX003 (ip), vehicle: saline with Tween-80

SMILES: COC(=O)/C=C(\C)Oc1cc(Cl)c(Cl)cc1Cl
- T/C [1]: 90 % of control
- T/C [2]: 100 % of control
- T/C [3]: 100 % of control
- T/C [4]: 109 % of control
- T/C [5]: 100 % of control
- T/C [6]: 95 % of control

SMILES: CCOc1ccc(Br)cc1C=O
- T/C [3]: 100 % of control
- T/C [4]: 90 % of control
- T/C [7]: 100 % of control
- T/C [5]: 95 % of control
- T/C (dose: 400.0 mg/kg/injection, schedule: Q01DX009 (ip), vehicle: saline with Tween-80): 100 % of control
- T/C [6]: 100 % of control

SMILES: NCCc1ccc(O)c(O)c1
- T/C (dose: 37.5 mg/kg/injection, schedule: Q01DX009 (ip), vehicle: saline): 101 % of control and 120 % of control
- T/C (dose: 75.0 mg/kg/injection, schedule: Q01DX009 (ip), vehicle: saline): 114 % of control
- T/C (dose: 150.0 mg/kg/injection, schedule: Q01DX009 (ip), vehicle: saline): 111 % of control
- T/C (dose: 300.0 mg/kg/injection, schedule: Q01DX009 (ip), vehicle: saline): 158 % of control

SMILES: Nc1nc(CNc2ccccc2)nc(Nc2ccccc2)n1
- T/C (dose: 50.0 mg/kg/injection, schedule: Q04DX003 (ip), vehicle: saline sonified): 100 % of control
- T/C (dose: 100.0 mg/kg/injection, schedule: Q04DX003 (ip), vehicle: saline sonified): 100 % of control
- T/C (dose: 200.0 mg/kg/injection, schedule: Q04DX003 (ip), vehicle: saline sonified): 105 % of control

SMILES: O=C1CC(Cl)C(=O)N1c1ccccc1 (configuration not stated)
- T/C (dose: 75.0 mg/kg/injection, schedule: Q04DX003 (ip), vehicle: saline with Tween-80): 108 % of control
- T/C (dose: 150.0 mg/kg/injection, schedule: Q04DX003 (ip), vehicle: saline with Tween-80): 104 % of control
- T/C (dose: 300.0 mg/kg/injection, schedule: Q04DX003 (ip), vehicle: saline with Tween-80): 104 % of control

SMILES: CC1CCC(C)N1P(=O)(N1CC1)N1CC1 (configuration not stated)
- T/C (dose: 16.5 mg/kg/injection, schedule: Q04DX003 (ip), vehicle: saline with Tween-80): 168 % of control and 183 % of control
- T/C [8]: 120 % of control and 218 % of control

SMILES: O=C(O)c1cc(Br)ccc1OCc1cccc(Cl)c1
- T/C [4]: 99 % of control

SMILES: COc1cc2ccc3c(c2cc1OC)CNCC3
- T/C [9]: 104 % of control
- T/C [10]: 109 % of control
- T/C [11]: 109 % of control

SMILES: O=C1Nc2c(Cl)cc(Cl)cc2C12Nc1ccccc1S2 (configuration not stated)
- T/C [2]: 112 % of control
- T/C [3]: 96 % of control
- T/C [7]: 107 % of control

SMILES: Cc1c2c(nn1-c1ccccn1)C(=O)C=C(Nc1ccccc1)C2=O
- T/C (dose: 8.8 mg/kg/injection, schedule: Q01DX009 (ip), vehicle: carboxymethylcellulose (CMC)): 91 % of control

SMILES: CCC(=O)/C(=C\c1ccccc1Cl)C(C)=O
- T/C [2]: 108 % of control
- T/C [3]: 116 % of control
- T/C [7]: 120 % of control

SMILES: CC1CSCC(C)O1 (configuration not stated)
- T/C [2]: 90 % of control
- T/C [3]: 100 % of control
- T/C [10]: 100 % of control
- T/C [7]: 104 % of control
- T/C [11]: 100 % of control
- T/C [12]: 104 % of control

SMILES: CC(C)(C)CN1CN(CC(C)(C)C)CN(CC(C)(C)C)C1
- T/C (dose: 100.0 mg/kg/injection, schedule: Q04DX002 (ip), vehicle: saline with Tween-80): 94 % of control
- T/C (dose: 200.0 mg/kg/injection, schedule: Q04DX002 (ip), vehicle: saline with Tween-80): 97 % of control
- T/C (dose: 400.0 mg/kg/injection, schedule: Q04DX002 (ip), vehicle: saline with Tween-80): 94 % of control

SMILES: O=C(Nc1ccccc1)C1(Br)CC2(C1)CC(Br)(C(=O)Nc1ccccc1)C2 (configuration not stated)
- T/C (dose: 100.0 mg/kg/injection, schedule: Q01DX001 (ip), vehicle: saline with Tween-80): 92 % of control
- T/C (dose: 200.0 mg/kg/injection, schedule: Q01DX001 (ip), vehicle: saline with Tween-80): 99 % of control

SMILES: CC(=O)OC1CCCc2c1nc1ccccc1[n+]2[O-] (configuration not stated)
- T/C [2]: 88 % of control
- T/C [3]: 100 % of control
- T/C [7]: 96 % of control

SMILES: COC(=O)c1[nH]cnc1/N=N\N(CCF)CCF
- T/C (dose: 16.5 mg/kg/injection, schedule: Q01DX009 (ip), vehicle: saline with Tween-80): 179 % of control
- T/C [1]: 188 % of control
- T/C (dose: 37.5 mg/kg/injection, schedule: Q01DX009 (ip), vehicle: saline with Tween-80): 166 % of control
- T/C (dose: 44.0 mg/kg/injection, schedule: Q04DX003 (ip), vehicle: saline with Tween-80): 168 % of control
- T/C (dose: 66.0 mg/kg/injection, schedule: Q04DX003 (ip), vehicle: saline with Tween-80): 218 % of control
- T/C [4]: 86 % of control

SMILES: CCNc1nc2ncnc(NCC)c2[nH]1
- T/C (dose: 3.13 mg/kg/injection, schedule: Q01DX009 (ip), vehicle: saline with Tween-80): 94 % of control
- T/C [13]: 103 % of control
- T/C [14]: 100 % of control
- T/C [1]: 101 % of control

SMILES: COc1cc(C=Nc2ccc(Cl)cc2)ccc1N(CCCl)CCCl
- T/C (dose: 2.2 mg/kg/injection, schedule: Q01DX009 (ip), vehicle: other): 162 % of control
- T/C (dose: 3.3 mg/kg/injection, schedule: Q01DX009 (ip), vehicle: other): 150 % of control
- T/C (dose: 5.0 mg/kg/injection, schedule: Q01DX009 (ip), vehicle: other): 179 % of control
- T/C (dose: 7.5 mg/kg/injection, schedule: Q01DX009 (ip), vehicle: other): 183 % of control
- T/C (dose: 22.0 mg/kg/injection, schedule: Q04DX003 (ip), vehicle: other): 245 % of control
- T/C (dose: 22.0 mg/kg/injection, schedule: Q04DX003 (ip), vehicle: saline): 113 % of control
- T/C (dose: 33.0 mg/kg/injection, schedule: Q04DX003 (ip), vehicle: other): 272 % of control
- T/C (dose: 33.0 mg/kg/injection, schedule: Q04DX003 (ip), vehicle: saline): 100 % of control
- T/C (dose: 50.0 mg/kg/injection, schedule: Q04DX003 (ip), vehicle: other): 186 % of control
- T/C (dose: 75.0 mg/kg/injection, schedule: Q04DX003 (ip), vehicle: saline): 181 % of control

SMILES: CNC(C)(C)C(SS)c1ccc(Cl)cc1 (configuration not stated)
- T/C [13]: 110 % of control
- T/C [14]: 118 % of control
- T/C [1]: 105 % of control and 121 % of control
- T/C [8]: 101 % of control
- T/C [2]: 96 % of control and 110 % of control
- T/C [15]: 99 % of control

SMILES: Cc1ccc(N2CC(=O)N3CCCC(c4ccccc4)N3C(=O)C2)cc1 (configuration not stated)
- T/C (dose: 50.0 mg/kg/injection, schedule: Q01DX005 (ip), vehicle: saline with Tween-80): 97 % of control
- T/C (dose: 100.0 mg/kg/injection, schedule: Q01DX005 (ip), vehicle: saline with Tween-80): 94 % of control
- T/C (dose: 200.0 mg/kg/injection, schedule: Q01DX005 (ip), vehicle: saline with Tween-80): 94 % of control

SMILES: CCCCCCCCCCCCCCCC(=O)N(CCCN)C(C)CCCN(CC)CC (configuration not stated)
- T/C [14]: 106 % of control
- T/C [1]: 99 % of control
- T/C [15]: 107 % of control
- T/C [4]: 93 % of control

SMILES: O=C(Nc1cc(C(F)(F)F)ccc1Cl)Nc1cc(C(F)(F)F)c(Cl)cc1S(=O)(=O)O
- T/C [9]: 90 % of control
- T/C [10]: 109 % of control
- T/C [11]: 122 % of control

SMILES: CNCC(=O)NC(CO)C(=O)NC1C(C(N)=O)OC(n2ccc(N)nc2=O)C(O)C1O (configuration not stated)
- T/C (dose: 0.75 mg/kg/injection, schedule: Q04DX003 (ip), vehicle: saline): 103 % of control
- T/C (dose: 1.5 mg/kg/injection, schedule: Q04DX003 (ip), vehicle: saline): 112 % of control
- T/C (dose: 3.0 mg/kg/injection, schedule: Q04DX003 (ip), vehicle: saline): 102 % of control

SMILES: NNCCC(=O)O
- T/C [10]: 91 % of control
- T/C [11]: 112 % of control
- T/C (dose: 264.0 mg/kg/injection, schedule: Q04DX003 (ip), vehicle: saline): 113 % of control
- T/C [12]: 118 % of control and 123 % of control

SMILES: CCOC(=O)C(COS(=O)(=O)c1ccc(C)cc1)(COS(=O)(=O)c1ccc(C)cc1)C(=O)OCC
- T/C (dose: 100.0 mg/kg/injection, schedule: Q01DX009 (ip), vehicle: Klucel (hydroxypropylcellulose) (HPC)): 108 % of control
- T/C (dose: 100.0 mg/kg/injection, schedule: Q04DX003 (ip), vehicle: Klucel (hydroxypropylcellulose) (HPC)): 100 % of control
- T/C (dose: 200.0 mg/kg/injection, schedule: Q01DX009 (ip), vehicle: Klucel (hydroxypropylcellulose) (HPC)): 104 % of control
- T/C (dose: 200.0 mg/kg/injection, schedule: Q04DX003 (ip), vehicle: Klucel (hydroxypropylcellulose) (HPC)): 104 % of control
- T/C (dose: 400.0 mg/kg/injection, schedule: Q01DX009 (ip), vehicle: Klucel (hydroxypropylcellulose) (HPC)): 100 % of control
- T/C (dose: 400.0 mg/kg/injection, schedule: Q04DX003 (ip), vehicle: Klucel (hydroxypropylcellulose) (HPC)): 100 % of control

SMILES: COC(=O)C1=C(C)N[C@@]2(C)[C@H](C(=O)OC)C[C@H]1C2(C(C)=O)C(C)=O
- T/C [2]: 116 % of control
- T/C [3]: 109 % of control
- T/C [7]: 109 % of control

SMILES: CSC(=S)N/N=C(\C)c1ccccn1
- T/C [8]: 92 % of control
- T/C [15]: 99 % of control
- T/C [4]: 106 % of control

SMILES: Cc1cccc(NC(=O)c2ccccc2)n1
- T/C [14]: 91 % of control
- T/C [1]: 91 % of control
- T/C [2]: 104 % of control

Reference: PubChem BioAssay AID328 (DTP/NCI, 2004)
